Laboratory results from ChEMBL document CHEMBL1201862, “PubChem BioAssay data set” (2004).
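The compound was tested at five concentrations on cells cultured in 96-well plates, with a 48-hour exposure period. Abbreviation: GI50, concentration required for 50% inhibition of growth.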 Activity calls are given as the source filed them. Cut-off read from the data, not from the text of the source: active = GI50 up to about 1.1 µM and inactive = higher.

Tests used:
Test in all cases: NCI tumour cell line growth inhibition, 48 h
COLO 205 = tested on: COLO 205
HCT-116 = tested on: HCT-116
HL-60 = tested on: HL-60
IGROV-1 = tested on: IGROV-1
NCI-H23 = tested on: NCI-H23
NCI-H460 = tested on: NCI-H460
OVCAR-3 = tested on: OVCAR-3
OVCAR-4 = tested on: OVCAR-4
OVCAR-8 = tested on: OVCAR-8
RPMI-8226 = tested on: RPMI-8226
SK-MEL-28 = tested on: SK-MEL-28
SNB-19 = tested on: SNB-19
SW-620 = tested on: SW-620
TK-10 = tested on: TK-10
UACC-257 = tested on: UACC-257
MOLT-4 = tested on: MOLT-4

Measured: GI50

COc1ccc(/C=C2/C(=O)N(C(=O)c3ccc(Cl)cc3)N=C2C)cc1OC
inactive: COLO 205 > 100 µM | HCT-116 > 100 µM | HL-60 > 100 µM | IGROV-1 > 100 µM | NCI-H23 > 100 µM | NCI-H460 > 100 µM | OVCAR-3 > 100 µM | OVCAR-4 > 100 µM | OVCAR-8 > 100 µM | RPMI-8226 > 100 µM | SK-MEL-28 > 100 µM | SNB-19 > 100 µM | SW-620 > 100 µM | TK-10 > 100 µM | UACC-257 > 100 µM

COc1ccc(S(=O)(=O)N(C)CC(=O)O)cc1
inactive: COLO 205 > 100 µM | HL-60 > 100 µM | IGROV-1 > 100 µM | MOLT-4 > 100 µM | NCI-H23 > 100 µM | NCI-H460 > 100 µM | OVCAR-3 > 100 µM | OVCAR-4 > 100 µM | OVCAR-8 > 100 µM | RPMI-8226 > 100 µM | SK-MEL-28 > 100 µM | SNB-19 > 100 µM | SW-620 > 100 µM | TK-10 > 100 µM | UACC-257 > 100 µM

COc1ccc(/N=c2\ssc3c(=S)ssc23)cc1
inactive: HCT-116 26 µM | HL-60 4.09 µM | IGROV-1 5.94 µM | MOLT-4 3.72 µM | NCI-H23 34.5 µM | OVCAR-3 25.2 µM | OVCAR-4 34.9 µM | OVCAR-8 17 µM | RPMI-8226 9.91 µM | SK-MEL-28 25.3 µM | SW-620 15.3 µM | TK-10 57.9 µM | UACC-257 > 10 µM

Cc1ccc(C(=O)/C=C/c2ccccc2O)c(C)c1
inactive: COLO 205 > 100 µM | HCT-116 > 100 µM | HL-60 > 100 µM | IGROV-1 > 100 µM | MOLT-4 94.8 µM | NCI-H23 > 100 µM | NCI-H460 > 100 µM | OVCAR-3 > 100 µM | OVCAR-4 > 100 µM | OVCAR-8 > 100 µM | RPMI-8226 18.7 µM | SK-MEL-28 > 100 µM | SNB-19 > 100 µM | SW-620 > 100 µM | TK-10 > 100 µM | UACC-257 > 100 µM

O=C1Nc2ccccc2C1(O)C/C(=N/O)c1ccc2ccccc2c1 (configuration not stated)
inactive: COLO 205 > 100 µM | HCT-116 > 100 µM | HL-60 41.8 µM | MOLT-4 64.9 µM | NCI-H23 71.9 µM | NCI-H460 > 100 µM | OVCAR-3 > 100 µM | OVCAR-4 > 100 µM | OVCAR-8 > 100 µM | RPMI-8226 87.1 µM | SK-MEL-28 > 100 µM | SNB-19 > 100 µM | SW-620 > 100 µM | TK-10 > 100 µM | UACC-257 > 100 µM

CN(c1ccccc1)C(c1ccccc1)C(O)c1ccccc1 (configuration not stated)
inactive: COLO 205 16.3 µM | HCT-116 18.6 µM | HL-60 15.5 µM | IGROV-1 22.2 µM | MOLT-4 12.8 µM | NCI-H23 22.4 µM | NCI-H460 20.1 µM | OVCAR-3 17.3 µM | OVCAR-4 18.1 µM | OVCAR-8 19.2 µM | RPMI-8226 20.8 µM | SK-MEL-28 20.5 µM | SNB-19 16.8 µM | SW-620 18.4 µM | TK-10 24.2 µM | UACC-257 19.3 µM

Cc1ccc(S(=O)(=O)OC2CC=CC2)cc1
inactive: COLO 205 > 100 µM | HCT-116 > 100 µM | HL-60 > 100 µM | IGROV-1 > 100 µM | MOLT-4 > 100 µM | NCI-H460 > 100 µM | OVCAR-3 > 100 µM | OVCAR-4 > 100 µM | OVCAR-8 > 100 µM | RPMI-8226 > 100 µM | SK-MEL-28 > 100 µM | SNB-19 > 100 µM | SW-620 > 100 µM | TK-10 > 100 µM | UACC-257 > 100 µM

CCOC(=O)C(C)(NC(=O)c1ccc(NCc2ccc3nc(NC(=O)c4ccccc4)nc(NC(=O)c4ccccc4)c3c2)cc1)C(=O)OCC
inactive: COLO 205 40.4 µM | HCT-116 6.97 µM | HL-60 > 100 µM | IGROV-1 19.9 µM | MOLT-4 26.6 µM | NCI-H23 9.86 µM | NCI-H460 14.5 µM | OVCAR-3 5.64 µM | OVCAR-4 2.09 µM | OVCAR-8 4.68 µM | RPMI-8226 18.3 µM | SK-MEL-28 8.18 µM | SW-620 11.7 µM | TK-10 19.9 µM | UACC-257 13.5 µM

CC(C)c1cc2c(O)c(c1)Cc1cc(C(C)C)cc(c1O)Cc1cc(C(C)C)cc(c1O)Cc1cc(C(C)C)cc(c1O)C2
inactive: COLO 205 > 100 µM | HCT-116 > 100 µM | HL-60 > 100 µM | IGROV-1 > 100 µM | MOLT-4 > 100 µM | NCI-H23 > 100 µM | NCI-H460 > 100 µM | OVCAR-3 > 100 µM | OVCAR-4 > 100 µM | OVCAR-8 > 100 µM | RPMI-8226 > 100 µM | SNB-19 > 100 µM | SW-620 > 100 µM | TK-10 > 100 µM | UACC-257 > 100 µM

O=C1NC(=O)C(CCC(=O)c2ccc3ccccc3c2)C(=O)N1
inactive: COLO 205 > 100 µM | HCT-116 > 100 µM | HL-60 > 100 µM | IGROV-1 > 100 µM | MOLT-4 > 100 µM | NCI-H23 > 100 µM | NCI-H460 > 100 µM | OVCAR-3 > 100 µM | OVCAR-4 > 100 µM | OVCAR-8 > 100 µM | SK-MEL-28 > 100 µM | SNB-19 > 100 µM | SW-620 > 100 µM | TK-10 > 100 µM | UACC-257 > 100 µM

CC(=O)NNc1nc(C)c(C(=O)NNC(=O)C(=O)Nc2c([N+](=O)[O-])ccc(C)c2C)s1
inactive: COLO 205 > 100 µM | HCT-116 > 100 µM | HL-60 > 100 µM | IGROV-1 > 100 µM | MOLT-4 43.6 µM | NCI-H23 > 100 µM | NCI-H460 > 100 µM | OVCAR-3 > 100 µM | OVCAR-4 52.8 µM | OVCAR-8 > 100 µM | RPMI-8226 > 100 µM | SK-MEL-28 > 100 µM | SNB-19 > 100 µM | SW-620 76.9 µM | TK-10 > 100 µM | UACC-257 > 100 µM

COc1cc(C2C(C(=O)O)=C(C)Oc3cc4c(cc32)OCO4)cc(OC)c1OC (configuration not stated)
inactive: COLO 205 23.9 µM | HCT-116 37.1 µM | HL-60 15.7 µM | IGROV-1 58.2 µM | MOLT-4 21.3 µM | NCI-H23 54.2 µM | NCI-H460 37.7 µM | OVCAR-3 19.3 µM | OVCAR-4 50.8 µM | OVCAR-8 51.2 µM | RPMI-8226 > 10 µM | SK-MEL-28 26.4 µM | SNB-19 40.6 µM | SW-620 33.7 µM | TK-10 88.3 µM | UACC-257 39.6 µM

CC(O)CN1C(=O)NC(Cc2ccccc2)C1=O (configuration not stated)
inactive: COLO 205 > 100 µM | HL-60 > 100 µM | NCI-H23 > 100 µM | NCI-H460 > 100 µM | OVCAR-8 > 100 µM | SK-MEL-28 > 100 µM | SNB-19 > 100 µM | SW-620 > 100 µM | TK-10 > 100 µM | UACC-257 > 100 µM

Cc1cc2c(c(C(N)=O)c1C)-c1ccccc1C2=O
inactive: COLO 205 > 100 µM | HCT-116 > 100 µM | HL-60 > 100 µM | IGROV-1 > 100 µM | MOLT-4 > 100 µM | NCI-H23 > 100 µM | NCI-H460 > 100 µM | OVCAR-3 > 100 µM | OVCAR-4 > 100 µM | OVCAR-8 > 100 µM | RPMI-8226 > 100 µM | SK-MEL-28 > 100 µM | SNB-19 > 100 µM | SW-620 > 100 µM | TK-10 > 100 µM | UACC-257 > 100 µM

COc1ccccc1N1C(=O)/C(=C/c2ccc(N(CCC#N)CCC#N)cc2C)N=C1c1cc([N+](=O)[O-])ccc1Cl
inactive: COLO 205 > 100 µM | HCT-116 > 100 µM | HL-60 > 100 µM | IGROV-1 > 100 µM | MOLT-4 > 100 µM | NCI-H23 > 100 µM | NCI-H460 > 100 µM | OVCAR-3 > 100 µM | OVCAR-4 20.6 µM | OVCAR-8 > 100 µM | RPMI-8226 > 100 µM | SK-MEL-28 > 100 µM | SNB-19 > 100 µM | TK-10 > 100 µM | UACC-257 > 100 µM

COc1cccc(SSc2cccc(OC)c2C(=O)O)c1C(=O)O
inactive: COLO 205 > 100 µM | HCT-116 > 100 µM | HL-60 > 100 µM | IGROV-1 > 100 µM | MOLT-4 > 100 µM | NCI-H23 > 100 µM | NCI-H460 > 100 µM | OVCAR-3 > 100 µM | OVCAR-4 > 100 µM | OVCAR-8 > 100 µM | RPMI-8226 > 100 µM | SK-MEL-28 > 100 µM | SW-620 > 100 µM | TK-10 > 100 µM | UACC-257 > 100 µM

CCN(CC)CCN1C(=O)CC2[C@@H]3CCc4cc(OC)ccc4C3CC[C@]2(C)C1=O (some centres not stated)
inactive: COLO 205 19.5 µM | HCT-116 > 10 µM | HL-60 16.8 µM | IGROV-1 75.2 µM | MOLT-4 > 10 µM | NCI-H23 91.2 µM | NCI-H460 37.6 µM | OVCAR-3 56.8 µM | OVCAR-4 > 100 µM | RPMI-8226 21.7 µM | SK-MEL-28 17.9 µM | SNB-19 > 100 µM | UACC-257 14.9 µM

CCC(Oc1ccc(OC)c2ccccc(=O)c12)C(=O)O (configuration not stated)
inactive: COLO 205 > 100 µM | HCT-116 > 100 µM | HL-60 > 100 µM | IGROV-1 > 100 µM | MOLT-4 > 100 µM | NCI-H23 > 100 µM | NCI-H460 > 100 µM | OVCAR-3 > 100 µM | OVCAR-4 > 100 µM | OVCAR-8 > 100 µM | RPMI-8226 > 100 µM | SK-MEL-28 > 100 µM | SNB-19 > 100 µM | SW-620 > 100 µM | TK-10 > 100 µM | UACC-257 > 100 µM
